As a reminder, the Ki is the dissociation constant of the complex between target and ligand, obtained from inhibition or displacement. The low end stands for a stronger hold on the target, the high end for a looser hold on the target.

The results in this text go back to ChEMBL document CHEMBL1140519, “2-(2-Chloro-6-fluorophenyl)acetamides as potent thrombin inhibitors” (Bioorg Med Chem Lett, 2007).

The assay has as its target Prothrombin (Homo sapiens, UniProt P00734). Put plainly: Inhibition of human thrombin after 15 mins by standard chromogenic assay.

`NC(N)=NOCCNC(=O)Cc1c(Cl)ccc(NCC(F)(F)c2cccnc2)c1F` returned a Ki of 33.9 nM.

In turn, `N=C(N)NOCCNC(=O)Cc1c(Cl)ccc(NCC(F)(F)c2cccc3cccnc23)c1F` came in with an inhibition constant (Ki) of 2.7 nM.

For the compound `CC(C)(CNc1ccc(Cl)c(CC(=O)NCCONC(=N)N)c1F)c1ccccn1`, the inhibition constant Ki came out at 58 nM.

The compound `CC(C)(CNc1ccc(Cl)c(CC(=O)NCCONC(=N)N)c1F)c1cccnc1` gave a Ki of 128 nM.

The compound `NC(N)=NOCCNC(=O)Cc1c(Cl)ccc(NCC(F)(F)c2cccc3cnccc23)c1F` had a Ki of 4.7 nM.

With `NC(N)=NOCCNC(=O)Cc1c(Cl)ccc(NCC(F)(F)c2ccccn2)c1F`, the Ki is 8.6 nM.

In turn, `N=C(N)NOCCNC(=O)Cc1c(Cl)ccc(NCC2(c3cccnc3)CC2)c1F` gave a Ki of 142 nM.

Regarding `Cc1nc(N)ccc1CNC(=O)Cc1c(Cl)ccc(NCC(F)(F)c2ccc(Cl)cn2)c1F`, the inhibitory constant (Ki) was determined as 0.7 nM.

In turn, `N=C(N)NOCCNC(=O)Cc1c(Cl)ccc(NS(=O)(=O)c2ccccc2)c1F` returned a Ki of 1280 nM.

For the compound `N=C(N)NOCCNC(=O)Cc1c(Cl)ccc(NCC(F)(F)c2cnc3ccccc3c2)c1F`, the Ki was determined as 169 nM.

Take `NC(N)=NOCCNC(=O)Cc1c(Cl)ccc(NCC(F)(F)c2ccc(Cl)cn2)c1F`: the affinity, expressed as Ki, was 1.8 nM.

The compound `Cc1nc(N)ccc1CNC(=O)Cc1c(Cl)ccc(NCC(F)(F)c2ccc(Cl)c[n+]2[O-])c1F` showed a Ki of 0.9 nM.

As to `Cc1nc(N)ccc1CNC(=O)Cc1c(Cl)ccc(NCC(F)(F)c2ccccc2)c1F`, the affinity corresponds to a Ki of 10.3 nM.

Turning to `N=C(N)NOCCNC(=O)Cc1c(Cl)ccc(NCC2(c3ccccn3)CC2)c1F`, the affinity corresponds to a Ki of 57 nM.
